Earlier results on three molecules are cited in patent publication US6124256A, “Method for the prevention of a patient's fibroproliferative vasculopathy” (priority 1998, dated 2000).

One data set deals with T1, hSSTR1 (Homo sapiens, UniProt P30872).
T1 construct: expressed in transfected cells; host or cells: CHO
As to conditions: human receptor in transfected CHO cell lines; read-out: binding affinities Ki hSSTR1.

A further data set addresses T2, hSSTR4 (Homo sapiens, UniProt P31391).
T2 construct: expressed in transfected cells; host or cells: CHO
As to conditions: human receptor in transfected CHO cell lines; read-out: binding affinities Ki hSSTR4.

In a further data set the target is T3, hSTR5 (Homo sapiens, UniProt P35346).
T3 construct: expressed in transfected cells; host or cells: CHO
As to conditions: human receptor in transfected CHO cell lines; read-out: binding affinities Ki hSTR5.

Data set [1] concerns the target T4, SSTR2 (Homo sapiens, UniProt P30874). The arrangement: expressed in transfected cells; host or cells: CHO. As to conditions: human receptor in transfected CHO cell lines; read-out: binding affinities Ki hSSTR2.
Target sequence in this assay (P30874 whole entry): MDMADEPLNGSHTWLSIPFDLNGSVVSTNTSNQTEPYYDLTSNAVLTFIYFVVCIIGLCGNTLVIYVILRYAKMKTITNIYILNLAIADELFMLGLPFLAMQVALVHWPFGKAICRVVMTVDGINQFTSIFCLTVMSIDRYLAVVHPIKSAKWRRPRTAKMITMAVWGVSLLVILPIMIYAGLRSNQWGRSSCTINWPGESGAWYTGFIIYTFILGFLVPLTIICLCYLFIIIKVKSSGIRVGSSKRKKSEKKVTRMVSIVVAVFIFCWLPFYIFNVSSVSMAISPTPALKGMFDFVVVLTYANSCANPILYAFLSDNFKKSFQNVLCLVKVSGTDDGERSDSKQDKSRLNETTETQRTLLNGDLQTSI
The target in data set [2] is T5, hSSTR3 (Homo sapiens, UniProt P32745). The arrangement: expressed in transfected cells; host or cells: CHO. Conditions: human receptor in transfected CHO cell lines; read-out: binding affinities Ki hSSTR3.
Another data set has as its system dysplastic lesions. As to conditions: arterial, venous and vascular transplant models, various animal species; results inconsistent between models.
The next data set has as its system restenosis. Conditions: randomized placebo controlled clinical trials; quantitated by angiography or as clinical events.
For data set [3], the target named is T4, SSTR2.
Target sequence in this assay (P30874 whole entry, species assumed): as the sequence (P30874 whole entry) above
For data set [4], the target named is T5, hSSTR3.
The test system of data set [5] is SSTR3, the rodent receptor.

T1 sequence (P30872 whole entry): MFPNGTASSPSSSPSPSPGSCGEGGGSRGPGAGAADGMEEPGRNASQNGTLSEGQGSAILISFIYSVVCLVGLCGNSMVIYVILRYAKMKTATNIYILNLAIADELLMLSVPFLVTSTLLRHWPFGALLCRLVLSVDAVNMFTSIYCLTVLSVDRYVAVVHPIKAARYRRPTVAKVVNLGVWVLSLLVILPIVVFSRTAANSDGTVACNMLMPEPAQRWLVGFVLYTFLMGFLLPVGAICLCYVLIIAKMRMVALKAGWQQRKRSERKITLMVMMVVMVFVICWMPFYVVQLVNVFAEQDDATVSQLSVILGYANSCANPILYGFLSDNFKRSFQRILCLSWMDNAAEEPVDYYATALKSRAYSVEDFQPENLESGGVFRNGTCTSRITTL
T5 sequence (P32745 whole entry): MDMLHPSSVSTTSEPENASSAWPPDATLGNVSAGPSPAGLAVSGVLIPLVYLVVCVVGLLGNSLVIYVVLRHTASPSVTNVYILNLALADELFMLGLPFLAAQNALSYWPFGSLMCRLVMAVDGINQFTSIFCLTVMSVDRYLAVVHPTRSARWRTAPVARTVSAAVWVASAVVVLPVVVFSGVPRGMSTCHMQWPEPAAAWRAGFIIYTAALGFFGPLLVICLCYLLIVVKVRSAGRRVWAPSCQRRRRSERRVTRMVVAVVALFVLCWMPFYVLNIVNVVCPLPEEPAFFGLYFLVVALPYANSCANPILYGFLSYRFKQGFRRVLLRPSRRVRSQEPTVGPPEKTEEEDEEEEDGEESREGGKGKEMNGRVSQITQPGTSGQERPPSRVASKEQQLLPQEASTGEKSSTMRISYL
T2 sequence (P31391 whole entry): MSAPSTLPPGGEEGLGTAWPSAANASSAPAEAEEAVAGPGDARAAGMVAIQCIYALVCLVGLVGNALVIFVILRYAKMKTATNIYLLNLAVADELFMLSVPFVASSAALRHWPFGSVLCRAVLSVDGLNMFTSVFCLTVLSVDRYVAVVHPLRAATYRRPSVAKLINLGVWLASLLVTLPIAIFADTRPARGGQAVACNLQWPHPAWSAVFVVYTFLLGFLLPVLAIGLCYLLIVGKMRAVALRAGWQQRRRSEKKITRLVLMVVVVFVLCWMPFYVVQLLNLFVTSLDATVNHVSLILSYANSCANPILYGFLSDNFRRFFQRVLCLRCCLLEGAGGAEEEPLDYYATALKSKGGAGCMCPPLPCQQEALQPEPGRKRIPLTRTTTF
T3 sequence (P35346 whole entry): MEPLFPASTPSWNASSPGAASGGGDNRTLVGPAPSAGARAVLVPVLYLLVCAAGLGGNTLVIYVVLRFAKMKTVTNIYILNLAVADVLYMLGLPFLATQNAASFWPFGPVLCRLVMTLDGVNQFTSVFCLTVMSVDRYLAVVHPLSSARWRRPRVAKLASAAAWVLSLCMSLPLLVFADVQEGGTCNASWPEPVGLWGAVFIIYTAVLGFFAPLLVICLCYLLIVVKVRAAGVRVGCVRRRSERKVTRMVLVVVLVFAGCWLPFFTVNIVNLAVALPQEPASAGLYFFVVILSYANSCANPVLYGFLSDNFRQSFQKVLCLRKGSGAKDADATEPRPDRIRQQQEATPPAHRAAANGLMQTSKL

One may read the Ki as a measure of affinity in units of concentration, obtained from inhibition or displacement. “desAA^1.2.5 [D-Trp^6 -N-p-isopropyl-4-aminomethyl-L-phenylalanine]-SST14 [DADI-SST14]”: the inhibition constant Ki at hSSTR1 is 3.2 nM; at hSSTR4, 4.3 nM; at hSTR5, over 1000 nM; on SSTR2 [1], over 1000 nM; at hSSTR3 [2], over 1000 nM.

Regarding `CC(C)[C@@H]1NC(=O)[C@H](CCCCN)NC(=O)[C@@H](Cc2c[nH]c3ccccc23)NC(=O)[C@H](Cc2ccc(O)cc2)NC(=O)[C@@H](NC(=O)[C@H](N)Cc2ccc3ccccc3c2)CSSC[C@@H](C(=O)N[C@H](C(N)=O)[C@@H](C)O)NC1=O` [Lanreotide, lanreotide], at hSSTR1, the Ki is over 1000 nM. For the same molecule, in the data set with dysplastic lesions, the “formation of dysplastic lesions” value is “prevents the formation of dysplastic lesions”. Further, the “prevention of restenosis after percutaneous transluminal angioplasty” value with restenosis is “in some studies has been shown to prevent restenosis”. Besides, on SSTR2 [3], the “affinity to SSTR2 (in words)” value is listed as “high affinity”.

Consider `C[C@@H](O)[C@@H]1NC(=O)[C@H](CCCCN)NC(=O)[C@@H](Cc2c[nH]c3ccccc23)NC(=O)[C@H](Cc2ccccc2)NC(=O)[C@@H](NC(=O)[C@H](N)Cc2ccccc2)CSSC[C@@H](C(=O)N[C@H](CO)[C@@H](C)O)NC1=O` [Octeoride, octreotide], for which the “formation of dysplastic lesions” value with dysplastic lesions is on record as “prevents the formation of dysplastic lesions”. The “prevention of restenosis after percutaneous transluminal angioplasty” value in the data set on restenosis is recorded as “the same therapeutic response has not been achieved”. For the same molecule, the “affinity to SSTR2 (in words)” value on SSTR2 [3] was “high affinity”. Besides, the “binding to human SSTR3 (in words)” value on hSSTR3 [4] is given as “binds well”. In addition, the “affinity for the rodent SSTR3 receptor (in words)” value in data set [5] was “only moderate affinity”.
